Numbered stars: 1 amine (or outer) side, 2 acyl side, 3 side chain; on linkers, the order of the positions; unused ones are H or OH. Square brackets hold non-standard residues; d marks the D form. Peptide text beside a SMILES is read from it. * marks the point of attachment. Dolaproine = CO[C@@H]([C@@H]1CCCN1)[C@@H](C)C(=O)O; NHCH2(1-pyrenyl) = c1cc2ccc3ccc(CN*)c4ccc(c1)c2c34; Dil = CC[C@H](C)[C@H](NC)[C@@H](CC(=O)O)OC; PABC = O=C(OCc1ccc(N[*:1])cc1)[*:2]; X1 = C[C@@H](N*)[C@@H](O)c1ccccc1; Cit = NC(=O)NCCC[CH](N)C(=O)O; NMeV = CN[C@H](C(=O)O)C(C)C; Glycolyl = O=C(CO)*; Sar = CNCC(=O)O
Experiments:
[1] = ref US8512707B2; cited from earlier work
in vitro = in vitro ADME; conditions: BALB/c, mouse, plasma
Procedure: Each test compound (10 mM in DMSO, 2 µL) was mixed with 1 µL of 1-pyrenemethylamine (10 mM in DMSO, internal standard) and incubated at 37 °C for 10 min. Pre-warmed human plasma pooled from healthy donors or BALB/c mouse plasma (197 µL, Innovative Research) was added to the mixture, followed by incubation at 37 °C. Aliquots (10 µL) were collected at each time point (0, 1, 6, 24, 48, and 96 h) and 40 µL of cold acetonitrile containing 1% formic acid was added to precipitate proteins. Supernatant of each sample was obtained and analyzed for quantification by analytical HPLC as described above. All assays were performed in triplicate.

human liver cathepsin B = biological target: T1, human liver cathepsin B (Homo sapiens, UniProt P07858); experiment: Cathepsin B-mediated cleavage assay using pyrene probes; format: biochemical; conditions: 37 °C, pH 5.0
T1 construct: Pre-warmed human liver cathepsin B (20 ng µL^–1, EMD Millipore); purchased EMD Millipore; host or cells: human liver (tissue-derived, as named)
Procedure: Each test compound (10 mM in DMSO, 2 µL) was mixed with 97 µL of MES buffer (25 mM MES-Na, 1 mM DTT, pH 5.0) and 1 µL of 1-pyrenemethylamine (10 mM in DMSO, internal standard). The mixture was incubated at 37 °C for 10 min. Pre-warmed human liver cathepsin B (20 ng µL^–1, EMD Millipore) in 100 µL MES buffer was added to the mixture, followed by incubation at 37 °C. Aliquots (10 µL) were collected at each time point (0, 0.5, 1, 3, 24, and 48 h). Cold acetonitrile containing 1% formic acid (40 µL) was added to precipitate proteins. Precipitated proteins were separated by centrifugation (15,000 × g, 4 °C, 30 min) and supernatant of each sample was analyzed for quantification by analytical HPLC (UV absorption at 342 nm). The amount of each probe was normalized to the peak area of the internal standard. All assays were performed at least three times in technical duplicate, and data shown are representative of the replicates.

Row | SMILES | maximum tolerated dose (MTD) [1] [mg/kg] | half-life at 100 µM (in vitro) [h] | Cathepsin B-mediated cleavage rate of probes (human liver cathepsin B)
1 | CC[C@H](C)[C@@H]([C@@H](CC(=O)N1CCC[C@H]1[C@H](OC)[C@@H](C)C(=O)N[C@H](C)[C@@H](O)c1ccccc1)OC)N(C)C(=O)[C@@H](NC(=O)[C@@H](NC)C(C)C)C(C)C [MMAE, monomethyl auristatin E] (H-[NMeV]V[Dil][Dolaproine]-X1) | 1 | – | –
2 | CC(=O)NC(C(=O)NC(CCCNC(N)=O)C(=O)Nc1ccc(COC(=O)N(C)CC(=O)NCc2ccc3ccc4cccc5ccc2c3c45)cc1)C(C)C (centres unmarked) [probe 1a] | – | 2.3 | –
3 | CC(=O)NC(CO)C(=O)NC(C(=O)NC(CCCNC(N)=O)C(=O)Nc1ccc(COC(=O)N(C)CC(=O)NCc2ccc3ccc4cccc5ccc2c3c45)cc1)C(C)C (centres unmarked) [probe 1b] (Ac-SV[Cit][PABC][Sar]-{NHCH2(1-pyrenyl)}; configuration not given here) | – | 3.1 | cleavage rate comparable with that of VCit probe 1a
4 | CC(=O)NC(CCC(=O)O)C(=O)NC(C(=O)NC(CCCNC(N)=O)C(=O)Nc1ccc(COC(=O)N(C)CC(=O)NCc2ccc3ccc4cccc5ccc2c3c45)cc1)C(C)C (centres unmarked) [probe 1c] (Ac-EV[Cit][PABC][Sar]-{NHCH2(1-pyrenyl)}; configuration not given here) | – | 19.1 | –
5 | CC(=O)NC(CC(=O)O)C(=O)NC(C(=O)NC(CCCNC(N)=O)C(=O)Nc1ccc(COC(=O)N(C)CC(=O)NCc2ccc3ccc4cccc5ccc2c3c45)cc1)C(C)C (centres unmarked) [probe 1d] (Ac-DV[Cit][PABC][Sar]-{NHCH2(1-pyrenyl)}; configuration not given here) | – | 14 | –
6 | CC(=O)NC(CCCCN)C(=O)NC(C(=O)NC(CCCNC(N)=O)C(=O)Nc1ccc(COC(=O)N(C)CC(=O)NCc2ccc3ccc4cccc5ccc2c3c45)cc1)C(C)C (centres unmarked) [probe 1e] (Ac-KV[Cit][PABC][Sar]-{NHCH2(1-pyrenyl)}; configuration not given here) | – | 0.9 | –
7 | CC(C)C(NC(=O)CNC(=O)CO)C(=O)NC(CCCNC(N)=O)C(=O)Nc1ccc(COC(=O)N(C)CC(=O)NCc2ccc3ccc4cccc5ccc2c3c45)cc1 (centres unmarked) [probe 1f] (Glycolyl-GV[Cit][PABC][Sar]-{NHCH2(1-pyrenyl)}; configuration not given here) | – | 5 | –

Source: publication PMC6023893, “Glutamic acid–valine–citrulline linkers ensure stability and efficacy of antibody–drug conjugates in mice” (Nature Communications, 2018)
